Earlier results as cited in US5834196A, “Method for detecting and/or optionally quantifying and/or separating apoptotic cells in or from a sample” (Nexins Research B.V., priority 1994, dated 1998).

Target: annexin V
Conditions: phosphatidyl serine containing membranes; Ca^2+ dependent binding; given as an estimation

For phosphatidyl serine, the Kd is listed as under 0.1 nM.
